Assay results as given in patent publication US20160102058A1, “FLUORO-PERHEXILINE COMPOUNDS AND THEIR THERAPEUTIC USE” (THE UNIVERSITY COURT OF THE UNIVERSITY OF ABERDEEN, priority 2013, published 2016).
One block for each compound: values may come before it.

Columns and labels:
[1] = cited from earlier work
CYP2D6 = target: T1, CYP2D6 (Homo sapiens, UniProt P10635); experiment: Cytochrome P450 2D6 reaction phenotyping (Bactosomes); assay type: in vitro ADME
T1 construct: purchased Cypex Ltd; host or cells: bacterial membranes (Bactosomes)
Description: The stability of fluoroperhexiline derivatives towards CYP2D6-mediated metabolism was measured by determination of the rate of compound disappearance when incubated in the presence CYP2D6 recombinant isoform expression systems (Bactosomes™). The percentage of parent compound remaining at each time point (following correction for any loss in the incubations with the control bactosomes) is calculated. cDNA expressed human CYP450 enzyme preparations co-expressed with human NADPH cytochrome P450 reductase (Bactosomes™) are supplied by Cypex Ltd. Bactosomes™ are stored at −80° C. prior to use. […] Incubations are also performed using control bactosomes (no P450 enzymes present) to reveal any non-enzymatic degradation. The final incubation volume is 25 μL. A compound known to be metabolised specifically by CYP2D6 isoform is used as a control compound. Each compound is incubated singly for 0, 5, 15, 30 and 45 min with each isoform. The reactions are stopped by the addition of 50 μL methanol containing internal standard at the appropriate time points. The incubation plates are centrifuged at 2500 rpm for 20 min at 4° C. to precipitate the protein. Following protein precipitation, the sample supernatants are combined in cassettes of up to four compounds and analysed using Cyprotex generic LC-MS/MS conditions. The natural logarithm of the peak area ratio (which has been corrected for any loss in the incubations with the control bactosomes) is plotted against time and the gradient of the line determined. Elimination Rate Constant (k)=(−Gradient).

[2] = Human liver microsomal (HLM) stability assay; assay type: in vitro ADME
Description: (§1) The metabolic stability of fluoroperhexiline derivatives was measured by determination of the rate of compound disappearance when incubated in the presence of both human and rat liver microsomes. Liver microsomes are prepared from the endoplasmic reticulum of hepatocytes and are the primary source of the most important enzymes (cytochrome P450) involved in drug metabolism. Study of drug stability in the presence of liver microsomes is accepted as a valuable model permitting rapid prediction of in vivo drug stability.
(§2) Human and rat liver microsomes were obtained from a commercial source. Test compounds (3 μM) were incubated with pooled liver microsomes (male and female). Samples were incubated for a 45 minute period and removed at 5 time points and test compounds were analysed by LC-MS/MS.
(§3) Microsomes (final protein concentration 0.5 mg/mL), 0.1 M phosphate buffer pH 7.4, and test compound (final concentration 3 μM; diluted from 10 mM stock solution to give a final DMSO concentration of 0.25%) were incubated at 37° C. prior to the addition of NADPH (final concentration 1 mM) to initiate the reaction. The final incubation volume was 25 μL. A control incubation was included for each compound tested, where 0.1 M phosphate buffer pH 7.4 was added instead of NADPH. The control compounds testosterone and 7-hydroxycoumarin were included in each experiment and all incubations were performed singularly for each compound.
(§4) Each compound was incubated for 0, 5, 15, 30, and 45 minutes. The control (minus NADPH) was incubated for 45 minutes only. The reactions were stopped by the addition of 50 μL methanol containing internal standard at the appropriate time points. The incubation plates were centrifuged at 2500 rpm for 20 minutes at 4° C. to precipitate the protein.
(§5) Following protein precipitation, the sample supernatants were combined in cassettes of up to 4 compounds and analysed using standard LC-MS/MS conditions.
(§6) From a plot of the natural logarithm of the peak area ratio (i.e., the ratio of compound peak area:internal standard peak area) against time, the gradient of the line was determined. Subsequently, half-life and intrinsic clearance were calculated using the equations below:
(§7) Eliminated Rate Constant (k)=(−Gradient).
(§8) Half-Life (t1/2) (min)=0.063/k.
(§9) Intrinsic Clearance (CLint) […]=(V×0.693)/t1/2. • wherein V=Incubation Volume (μL/mg microsomal protein).

[3] = Rat liver microsomal (RLM) stability assay; assay type: in vitro ADME; settings: both sexes, pH 7.4, rat liver microsomes, 3 μM test compound
Description: as §1, §2, §3, §4, §5, §6, §7, §8, §9

T1 sequence (P10635 whole entry): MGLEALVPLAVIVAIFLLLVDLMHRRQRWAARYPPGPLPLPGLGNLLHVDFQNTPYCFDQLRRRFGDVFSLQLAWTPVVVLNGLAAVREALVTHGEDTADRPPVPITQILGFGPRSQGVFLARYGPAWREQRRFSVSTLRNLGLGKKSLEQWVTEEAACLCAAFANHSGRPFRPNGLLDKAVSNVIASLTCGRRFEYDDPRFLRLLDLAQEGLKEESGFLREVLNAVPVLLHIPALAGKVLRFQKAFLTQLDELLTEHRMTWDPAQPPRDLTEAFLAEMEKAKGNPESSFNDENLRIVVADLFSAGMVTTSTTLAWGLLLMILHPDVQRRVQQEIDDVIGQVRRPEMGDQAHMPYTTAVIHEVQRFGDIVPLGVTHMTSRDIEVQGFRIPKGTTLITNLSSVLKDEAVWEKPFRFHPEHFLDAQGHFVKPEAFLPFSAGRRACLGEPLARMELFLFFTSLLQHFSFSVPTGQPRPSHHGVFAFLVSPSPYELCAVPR

Compound: O[C@H]1CC[C@@H](C(CC2CCCCN2)C2CCCCC2)CC1 (relative stereo) [cis-OH-perhexiline, cis-4-[1-(cyclohexyl)-2-(2-piperidinyl)ethyl]cyclohexanol]
- plasma AUC of cis-OH-perhexiline after (−)-perhexiline compared with (+)-perhexiline ([1]; plasma): 28 fold

Compound: C1CCC(C(CC2CCCCN2)C2CCCCC2)CC1 (single isomer, unassigned; (+)) [(+)-perhexiline]
- ratio of systemic exposure of (+)- to (−)-perhexiline, extensive metabolisers ([1]; EM): 1.5
- ratio of systemic exposure of (+)- to (−)-perhexiline, poor metabolisers ([1]; PM): 2.3
- plasma AUC, (+)-perhexiline relative to (−)-perhexiline ([1]; plasma): 2.5 fold

- half-life at 5 μM (CYP2D6; human, pH 7.4, recombinant CYP2D6 Bactosomes, 5 μM test compound, read-out: T½): 2.52 h
- microsomal CLint at 3 μM ([2]; both sexes, pH 7.4, human liver microsomes, 3 μM test compound, read-out: CLint (μL/min/mg protein) HLM): 0.3 µL/min/mg
- half-life at 3 μM ([2]; both sexes, pH 7.4, human liver microsomes, 3 μM test compound, read-out: T½ (min) HLM): 4210 min
- microsomal CLint at 3 μM ([3]; read-out: CLint (μL/min/mg protein) RLM): 0.8 µL/min/mg
- half-life at 3 μM ([3]; read-out: T½ (min) RLM): 1650 min
Compound: FC1(F)CCC(C(CC2CCCCN2)C2CCC(F)(F)CC2)CC1 (centres unmarked) [FPER-002, 2-(2,2-Bis(4,4-Difluorocyclohexyl)ethyl)piperidine]
- stability towards CYP2D6 compared with perhexiline (in words) (CYP2D6; versus perhexiline): substantial increase in stability towards CYP2D6
- metabolic stability compared with perhexiline (in words) ([2]; human and rat liver microsomes, versus perhexiline): substantial increase in metabolic stability
